Values after ≈ are worked out from the molar mass of the structure shown. Each block holds one compound with its values, some of them ahead of it.
Key:
Leishmania donovani = experiment: Antiparasitic activity against Leishmania donovani by cell based assay; format: functional, organism-based
Plasmodium falciparum = experiment: Antiparasitic activity against Plasmodium falciparum by cell based assay; format: functional, organism-based
[1] = tested on: Trichophyton mentagrophytes; experiment: Antimicrobial activity against Trichophyton mentagrophytes IFO40996 by serial two-fold broth dilution method; format: functional
Aspergillus fumigatus = experiment: Antimicrobial activity against Aspergillus fumigatus HIC6094 by serial two-fold broth dilution method; format: functional
Candida albicans [2] = experiment: Antimicrobial activity against Candida albicans ATCC 10231 by serial two-fold broth dilution method; format: functional
Trichophyton rubrum = experiment: Antimicrobial activity against Trichophyton rubrum IFO9185 by serial two-fold broth dilution method; format: functional
Escherichia coli [3] = experiment: Antibacterial activity against Escherichia coli ATCC 25922 after 24 to 48 hrs by two-fold microdilution susceptibility assay; format: functional
HeLa = experiment: Cytotoxicity against human HeLa cells assessed as growth inhibition after 48 hrs by SRB assay; format: functional
[4] = Cytotoxicity against human RPMI8226 cells assessed as growth inhibition after 48 hrs by SRB assay; format: functional; settings: RPMI-8226, 48 h
NCI-H522 = experiment: Cytotoxicity against human NCI-H522 cells assessed as growth inhibition after 48 hrs by SRB assay; format: functional; settings: NCI-H522, 48 h
[5] = Cytotoxicity against human HOP92 cells assessed as growth inhibition after 48 hrs by SRB assay; format: functional; settings: HOP-92, 48 h
CCRF-CEM = experiment: Cytotoxicity against human CCRF-CEM cells assessed as growth inhibition after 48 hrs by SRB assay; format: functional
EKVX = experiment: Cytotoxicity against human EKVX cells assessed as growth inhibition after 48 hrs by SRB assay; format: functional
Candida albicans [6] = experiment: Antifungal activity against Candida albicans after 24 to 48 hrs by two-fold microdilution susceptibility assay; format: functional
Escherichia coli [7] = experiment: Antimicrobial activity against Escherichia coli after 24 hrs by serial dilution method; format: functional
HepG2 = experiment: Cytotoxicity against human HepG2 cells assessed as growth inhibition after 48 hrs by SRB assay; format: functional; settings: HepG2, 48 h
Rattus norvegicus = experiment: Antiinflammatory activity against albino rat assessed as inhibition of carrageenin induced paw edema at 100 mg/kg, po administered for 1 hr followed by carrageenin challenge measured after 4 hrs; format: functional
[8] = tested on: Lysinibacillus sphaericus; experiment: Antimicrobial activity against Bacillus sphaericus MTCC 11 after 24 hrs by serial two-fold broth dilution method; format: functional; settings: MTCC 11, 24 h
Staphylococcus aureus = experiment: Antimicrobial activity against Staphylococcus aureus MTCC 96 after 24 hrs by serial two-fold broth dilution method; format: functional; settings: MTCC 96, 24 h
[9] = tested on: Chromobacterium violaceum; experiment: Antimicrobial activity against Chromobacterium violaceum MTCC 2625 after 24 hrs by serial two-fold broth dilution method; format: functional; settings: MTCC 2625, 24 h
Pseudomonas aeruginosa = experiment: Antimicrobial activity against Pseudomonas aeruginosa MTCC 741 after 24 hrs by serial two-fold broth dilution method; format: functional; settings: MTCC 741, 24 h
Bacillus subtilis = experiment: Antimicrobial activity against Bacillus subtilis MTCC 441 after 24 hrs by serial two-fold broth dilution method; format: functional; settings: MTCC 441, 24 h
Klebsiella aerogenes = experiment: Antimicrobial activity against Klebsiella aerogenes MTCC 39 after 24 hrs by serial two-fold broth dilution method; format: functional; settings: MTCC 39, 24 h

IC50 (Leishmania donovani): > 30 µg/mL
IC50 (Plasmodium falciparum): > 5 µg/mL
SMILES: CC1=NN(C2=NC(=O)CS2)C(c2ccccc2)C1 (centres undefined)

MIC [1]: 14 µg/mL (≈ 24.1 µM)
MIC (Aspergillus fumigatus): 14 µg/mL (≈ 24.1 µM)
MIC (Candida albicans [2]): 14 µg/mL (≈ 24.1 µM)
MIC (Trichophyton rubrum): 14 µg/mL (≈ 24.1 µM)
SMILES: Cc1nn(-c2ccccc2)c(C)c1-c1cc(-c2ccc(Cl)cc2)nc(N2C(=O)CSC2c2ccc(N(C)C)cc2)n1 (centres undefined)

MIC (Escherichia coli [3]): 25 µg/mL (≈ 46.6 µM)
SMILES: Cc1ccc(N2C(=O)CS/C2=N/N=C\c2cn(-c3ccccc3)nc2-c2ccc(Br)s2)cc1

MIC [1]: 14 µg/mL (≈ 26.5 µM)
MIC (Aspergillus fumigatus): 14 µg/mL (≈ 26.5 µM)
MIC (Candida albicans [2]): 14 µg/mL (≈ 26.5 µM)
MIC (Trichophyton rubrum): 14 µg/mL (≈ 26.5 µM)
SMILES: Cc1nn(-c2ccccc2)c(C)c1-c1cc(-c2ccc(Cl)cc2)nc(N2C(=O)CSC2c2ccco2)n1 (centres undefined)

SMILES: Cc1ccc(N2C(=O)CSC2c2cn(-c3ccccc3)nc2-c2cc3ccccc3o2)cc1 (centres undefined)
GI50 (HeLa): 1.2 µg/mL (≈ 2.66 µM)

SMILES: O=C1NC(=S)S/C1=C\c1cn(-c2ccccc2)nc1-c1ccccc1
GI50 [4]: 2520 nM
GI50 (NCI-H522): 2960 nM
GI50 [5]: 620 nM
CC50 ([5]; read-out: LC50 (the source's name)): > 100000 nM
GI50 (CCRF-CEM): 2500 nM
GI50 (EKVX): 3030 nM

MIC (Candida albicans [6]): 12.5 µg/mL (≈ 22.4 µM)
SMILES: O=C1CS/C(=N/N=C\c2cn(-c3ccccc3)nc2-c2ccc(Br)s2)N1c1ccc(Cl)cc1

MIC (Escherichia coli [7]): 143 µg/mL (≈ 185 µM)
SMILES: CC(=O)OC[C@@H]1O[C@@H](N2C(=O)/C(=C/c3cn(-c4ccccc4)nc3-c3ccc(Br)cc3)SC2=S)[C@@H](OC(C)=O)[C@H](OC(C)=O)[C@@H]1OC(C)=O

SMILES: C(=N\Nc1nc(-c2ccc3c(c2)CCCC3)cs1)/c1cn(-c2ccccc2)nc1-c1cc2ccccc2o1
GI50 (HepG2): 5 µg/mL (≈ 9.7 µM)

SMILES: CC(C(=O)O)c1cccc(C(=O)c2ccccc2)c1 (centres undefined) [KETOPROFEN]
inhibition in vivo at 100 mg/kg (Rattus norvegicus): 63%

SMILES: CC1(C)S[C@@H]2[C@H](NC(=O)Cc3ccccc3)C(=O)N2[C@H]1C(=O)O [PENICILLIN G]
MIC [8]: 1.56 µg/mL (≈ 4.67 µM)
MIC (Staphylococcus aureus): 1.56 µg/mL (≈ 4.67 µM)
MIC [9]: 1.56 µg/mL (≈ 4.67 µM)
MIC (Pseudomonas aeruginosa): 1.56 µg/mL (≈ 4.67 µM)
MIC (Bacillus subtilis): 1.56 µg/mL (≈ 4.67 µM)
MIC (Klebsiella aerogenes): 1.56 µg/mL (≈ 4.67 µM)

MIC (Escherichia coli [7]): 39 µg/mL (≈ 87.8 µM)
SMILES: CN(C)[C@@H]1C(O)=C(C(N)=O)C(=O)[C@@]2(O)C(O)=C3C(=O)c4c(O)cccc4[C@@](C)(O)[C@H]3C[C@@H]12 [TETRACYCLINE]

Reference: ChEMBL document CHEMBL3779866, “Synthetic approaches, structure activity relationship and biological applications for pharmacologically attractive pyrazole/pyrazoline-thiazolidine-based hybrids” (Eur J Med Chem, 2016)
